Laboratory results reported in patent publication US20090197856A1, “ANTIVIRAL COMPOUNDS” (Genelabs Technologies, Inc., priority 2007, published 2009).
Like-named read-outs stand apart in the source and are kept apart here.

Legend:
NS5B = target: T1, NS5B (Hepatitis C virus genotype 1b, UniProt Q9WMX2); experiment: Polymerase assay, incorporation of radiolabeled GTP with biotinylated oligoG13 primer and polycytidylic acid RNA template; type: biochemical; details: polyC RNA template, biotin-oligoG13 primer, tritiated GTP, 3 nM NS5B, 30° C., 2 hours
T1 construct: 3 nM NS5B, 20 nM polyC RNA template
Protocol: The polymerase activity was also assayed by measuring incorporation of radiolabeled GTP into an RNA product using a biotinylated oligoG13 primer with a polycytidylic acid RNA template. Typically, the assay mixture (40 μL) contains 50 mM HEPES (pH 7.3), 2.5 mM magnesium acetate, 2 mM sodium chloride, 37.5 mM potassium acetate, 5 mM DTT, 0.4 U/mL RNasin, 2.5% glycerol, 3 nM NS5B, 20 nM polyC RNA template, 20 nM biotin-oligoG13 primer, and 0.2 μM tritiated guanosine triphosphate. Test compounds were initially dissolved and diluted in 100% DMSO and further diluted into aqueous buffer, producing a final concentration of 5% DMSO. Typically, compounds were tested at concentrations between 0.2 nM and 10 μM. Reactions were started with addition of tritiated guanosine triphosphate and allowed to continue at 30° C. for 2 hours. Reactions were quenched with 100 μL stop buffer containing 10 mM EDTA and 1 μg/mL streptavidin-coated scintillation proximity beads. Reaction plates were incubated at 4° C. for 10 hours and then incorporation of radioactivity was determined by scintillation counting. The table below lists the IC50 values of compounds determined using this procedure.

HCV-NS5b = target: T2, HCV-NS5b (Hepatitis C virus genotype 1b, UniProt Q9WMX2); experiment: HCV-NS5b enzyme assay using homopolymer substrate; type: biochemical
T2 construct: (His)6 (C); made in house; host or cells: XL-1 cells (E. coli), IPTG-inducible plasmid
Source text: The coding sequence of NS5b protein was cloned by PCR from pFKI389luc/NS3-3′/ET as described by Lohmann, V., et al. (1999) Science 285, 110-113 using the primers shown on page 266 of WO 2005/012288
The cloned fragment is missing the C terminus 21 amino acid residues. The cloned fragment was inserted into an IPTG-inducible (isopropyl-β-D-thiogalactopyranoside) expression plasmid that provides an epitope tag (His)6 at the carboxy terminus of the protein.
The recombinant enzyme was expressed in XL-1 cells and after induction of expression, the protein was purified using affinity chromatography on a nickel-NTA (nitrilotriacetic acid) column. Storage condition was 10 mM Tris-HCl pH 7.5, 50 mM NaCl, 0.1 mM EDTA (ethylenediaminetetraacetic acid), 1 mM DTT (dithiothreotol), 20% glycerol at −20° C.
The polymerase activity was assayed by measuring incorporation of radiolabeled UTP into a RNA product using a biotinylated, homopolymeric template. The template was formed by annealing adenosine homopolymer to uridine 20-mer capped with a 5′-biotin group (biotin-U^20) in the ratio of 1:4. Typically, the assay mixture (50 μL) contained 25 mM Tris-HCl (pH 7.5), 40 mM KCl, 0.3 mM MgCl2, 0.05 mM EDTA, 0.2 unit/μL Superase RNAse Inhibitor, 5 mM DTT, 30 μM UTP (Uridine triphosphate), including [^3H]-UTP (uridine triphosphate) at 0.4 μCi/μL with final concentration of 1 μM, and 50 nM of homopolymeric template. Test compounds were initially dissolved in 100% DMSO and further diluted in aqueous buffer containing 5% DMSO. Typically, compounds were tested at concentrations between 2 nM and 50 μM. Reactions were started with addition of enzyme and allowed to continue at 30° C. for 90 minutes. Reactions were quenched with 8 μL of 100 mM EDTA and reaction mixtures (30 μL) were transferred to streptavidin-coated scintillation proximity microtiter plates (FlashPlates) and incubated at room temperature overnight. Incorporation of radioactivity was determined by scintillation counting.
Inhibitor IC50 values were determined by adding test compound as ten point, two-fold serial dilutions in 100% DMSO with a final reaction concentration of 5%. IC50 was calculated by plotting the % inhibition against compound concentration and fitting the data to a constrained four parameter sigmoidal curve, equivalent to the “four parameter logistic equation”:
Where Bottom is the minimum Y value, Top is the maximum Y value, and Hillslope is the slope of the linear portion of the semi-log curve. Top and Bottom were constrained to values of 0% and 100%, respectively. These analyses were performed using Graphpad Prism v.4.0 (Graphpad Software, Inc.) in conjunction with DS Accord for EXCEL 6.0 (Accelrys, Microsoft Corp.).
The table below lists the IC50 values of compounds determined using the homopolymer substrates.

[1] = homopolymer substrate, [3H]-UTP incorporation, 30° C., 90 minutes, read-out: IC50

SMILES	IC50 (HCV-NS5b; [1]) [nM]	other results
O=C(O)c1ccc2c(C3CCCCC3)c3n(c2c1)CCCn1cc(CNS(=O)(=O)C2CC2)c2cccc-3c21 [Compound 304, 12-Cyclohexyl-1-{[(cyclopropylsulfonyl)amino]methyl}-5,6-dihydro-4H-[1,5]diazocino[1,2-a:5,4,3-h′i′]diindole-9-carboxylic acid]		IC50 (NS5B): 9 nM
COCCNC1CCN2CCn3c(c(C4CCCCC4)c4ccc(C(=O)O)cc43)-c3cccc1c32 (centres unmarked) [Compound 283]		IC50 (NS5B): 4.3 nM
CCN(C)Cc1c(C(=O)NS(=O)(=O)N(C)C)n2c3c(cccc13)-c1c(C3CCCCC3)c3ccc(C(=O)O)cc3n1CCC2 [Compound 321]		IC50 (NS5B): 8 nM
CC1(C)C(=O)N2CCCn3c(c(C4CCCCC4)c4ccc(C(=O)O)cc43)-c3cccc1c32 [Compound 265, 12-cyclohexyl-1,1-dimethyl-2-oxo-1,2,5,6-tetrahydro-4H-[1,5]diazocino[1,2-a:5,4,3-h′i′]diindole-9-carboxylic acid]		IC50 (NS5B): 9 nM
CC(C)CNC1CCN2CCn3c(c(C4CCCCC4)c4ccc(C(=O)O)cc43)-c3cccc1c32 (centres unmarked) [Compound 278]		IC50 (NS5B): 2.57 nM
O=C(O)c1ccc2c(C3CCCCC3)c3n(c2c1)CCCN1C(=O)C2(CC2)c2cccc-3c21 [Compound 269, 12′-cyclohexyl-2′-oxo-5′,6′-dihydro-4′H-spiro[cyclopropane-1,1′-[1,5]diazocino[1,2-a:5,4,3-h′i′]diindole]-9′-carboxylic acid]		IC50 (NS5B): 21 nM
CCN(Cc1cn2c3c(cccc13)-c1c(C3CCCCC3)c3ccc(C(=O)O)cc3n1CCC2)C(C)C [Compound 361]	176	
O=C(O)c1ccc2c(C3CCCCC3)c3n(c2c1)CCCn1c2c-3cccc2c2c(=O)[nH][nH]c(=O)c21 [Compound 416]	146	
CS(=O)(=O)CCNCc1cn2c3c(cccc13)-c1c(C3CCCCC3)c3ccc(C(=O)O)cc3n1CCC2 [Compound 391]	211	
O=C(O)c1ccc2c(C3CCCCC3)c3n(c2c1)CCCn1cc(CCCN2CCCCC2)c2cccc-3c21 [Compound 434]	172	
O=C(O)c1ccc2c(C3CCCCC3)c3n(c2c1)CCCn1cc(CN2CCCC(F)C2)c2cccc-3c21 (centres unmarked) [Compound 353]	109	
NC(=O)c1cc2cccc3c2n1CCCn1c-3c(C2CCCCC2)c2ccc(C(=O)O)cc21 [Compound 413]	105	
CC1CCCN(Cc2cn3c4c(cccc24)-c2c(C4CCCCC4)c4ccc(C(=O)O)cc4n2CCC3)C1 (centres unmarked) [Compound 130]	111	
O=C(O)c1ccc2c(C3CCCCC3)c3n(c2c1)CCCn1cc(CN2CCC(F)(F)CC2)c2cccc-3c21 [Compound 127]	290	
O=C(O)c1ccc2c(C3CCCCC3)c3n(c2c1)CCCn1cc(CN2CCCCO2)c2cccc-3c21 [Compound 116]	138	
O=C(O)c1ccc2c(C3CCCCC3)c3n(c2c1)CCN1CCC(NC2CCOCC2)c2cccc-3c21 (centres unmarked) [Compound 282]	59	
COC1CCN(Cc2cn3c4c(cccc24)-c2c(C4CCCCC4)c4ccc(C(=O)O)cc4n2CCC3)CC1 [Compound 115]	87	
O=C(O)c1ccc2c(C3CCCCC3)c3n(c2c1)CCCn1cc(CN2CC[C@H](F)C2)c2cccc-3c21 [Compound 354]	110	
CN1CCN(Cc2cn3c4c(ccc(F)c24)-c2c(C4CCCCC4)c4ccc(C(=O)O)cc4n2CCC3)CC1 [Compound 348]	143	
CCN(C)Cc1cn2c3c(cccc13)-c1c(C3CCCCC3)c3ccc(C(=O)O)cc3n1CCC2 [Compound 129]	96	
CN(C)C(=O)c1cc2cccc3c2n1CCCn1c-3c(C2CCCCC2)c2ccc(C(=O)O)cc21 [Compound 405]	139	
O=C(O)c1ccc2c(C3CCCCC3)c3n(c2c1)CCCn1cc(C2=CCNCC2)c2cccc-3c21 [Compound 397]		IC50 (HCV-NS5b): 218 nM
CCN(C)Cc1cn2c3c(ccc(F)c13)-c1c(C3CCCCC3)c3ccc(C(=O)O)cc3n1CCC2 [Compound 347]	122	
O=C(O)c1ccc2c(C3CCCCC3)c3n(c2c1)CCCn1cc(CN2CCC(F)CC2)c2cccc-3c21 [Compound 352]	89	

SMILES	IC50 (HCV-NS5b; [1]) [nM]	other results
O=C(O)c1ccc2c(C3CCCCC3)c3n(c2c1)CCCn1cc(C(=O)C(=O)N2CCCCC2)c2cccc-3c21 [Compound 114]		IC50 (HCV-NS5b): 89 nM
CN1CCN(C(=O)c2c(Cl)c3cccc4c3n2CCCn2c-4c(C3CCCCC3)c3ccc(C(=O)O)cc32)CC1 [Compound 412]	179	
CCN(CC)Cc1cn2c3c(ccc(F)c13)-c1c(C3CCCCC3)c3ccc(C(=O)O)cc3n1CCC2 [Compound 346]	119	
O=C(O)c1ccc2c(C3CCCCC3)c3n(c2c1)CCCn1cc(CN2CC[C@@H](F)C2)c2cccc-3c21 [Compound 126]	96	
CCN(CC)C(=O)C(=O)c1cn2c3c(cccc13)-c1c(C3CCCCC3)c3ccc(C(=O)O)cc3n1CCC2 [Compound 453]		IC50 (HCV-NS5b): 212 nM
CCN(CC)CCC(=O)c1cn2c3c(cccc13)-c1c(C3CCCCC3)c3ccc(C(=O)O)cc3n1CCC2 [Compound 429]		IC50 (HCV-NS5b): 99 nM
O=C(O)c1ccc2c(C3CCCCC3)c3n(c2c1)CCn1cc(CN2CCCCC2)c2c(F)ccc-3c21 [Compound 468]	84	
CC(C)NC1CCN2CCn3c(c(C4CCCCC4)c4ccc(C(=O)O)cc43)-c3cccc1c32 (centres unmarked) [Compound 276]	65	
O=C(O)c1ccc2c(C3CCCCC3)c3n(c2c1)CCCn1cc(CNC2CCC2)c2cccc-3c21 [Compound 383]	85	
CCN1CCN(Cc2cn3c4c(cccc24)-c2c(C4CCCCC4)c4ccc(C(=O)O)cc4n2CCC3)CC1 [Compound 356]	120	
O=C(O)c1ccc2c(C3CCCCC3)c3n(c2c1)CCCn1c(CN2CCCCC2)cc2cccc-3c21 [Compound 414]	98	
O=C(O)c1ccc2c(C3CCCCC3)c3n(c2c1)CCCn1c(C(=O)N2CCCCC2)cc2cccc-3c21 [Compound 406]	136	
CCN(CC)Cc1cn2c3c(cccc13)-c1c(C3CCCCC3)c3ccc(C(=O)O)cc3n1CCC2 [Compound 120]	85	
O=C(O)c1ccc2c(C3CCCCC3)c3n(c2c1)CCCn1cc(CNC2CCCCC2)c2cccc-3c21 [Compound 378]	199	
O=C(O)c1ccc2c(C3CCCCC3)c3n(c2c1)CCCn1cc(CCCN2CCCC2)c2cccc-3c21 [Compound 435]	171	
CCN(CC)C(=O)c1cn2c3c(cccc13)-c1c(C3CCCCC3)c3ccc(C(=O)O)cc3n1CCC2 [Compound 438]		IC50 (HCV-NS5b): 69 nM
O=C(O)c1ccc2c(C3CCCCC3)c3n(c2c1)CCCn1cc(CNC2CCCOC2)c2cccc-3c21 (centres unmarked) [Compound 370]	94	
CCN(C)Cc1cn2c3c(cccc13)-c1c(C3CCCCC3)c3ccc(C(=O)O)cc3n1CC1(CC1)C2 [Compound 428]	166	
CSCCNCc1cn2c3c(cccc13)-c1c(C3CCCCC3)c3ccc(C(=O)O)cc3n1CCC2 [Compound 358]	153	
O=C(O)c1ccc2c(C3CCCCC3)c3n(c2c1)CCCn1cc(CN(CCO)CCO)c2cccc-3c21 [Compound 363]	124	
O=C(O)c1ccc2c(C3CCCCC3)c3n(c2c1)CCCn1cc(CN2CCS(=O)(=O)CC2)c2cccc-3c21 [Compound 394]	159	
CN1CCN(Cc2cn3c4c(cccc24)-c2c(C4CCCCC4)c4ccc(C(=O)O)cc4n2CCC3)CC1 [Compound 125]	68	
CNCc1cn2c3c(cccc13)-c1c(C3CCCCC3)c3ccc(C(=O)O)cc3n1CCC2 [Compound 372]	106	
